# Test results reported in patent US12398154B2, “Azaquinazoline pan-KRas inhibitors” (Mirati Therapeutics, Inc., priority 2020, dated 2025).
# Tests used:
# KRas G12R = KRas G12R (Homo sapiens, UniProt P01116, G12R); assay: biochemical;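 further: TR-FRET displacement assay of compound binding to KRas, read after one hour at room temperature, potency from a four-parameter fit of percent-of-control values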
# Method: (§2) The ability of a compound to bind to KRas was measured using a TR-FRET displacement assay. […] After a 60-minute incubation at room temperature, the reaction was measured using a BMG LABTECH CLARIO star Plus via TR-FRET. […] The POC values were fit to a 4-parameter IC50 equation and the IC50 value reported.
# KRas G12V = KRas G12V (Homo sapiens, UniProt P01116, G12V); assay: biochemical;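 further: KRas binding measured by TR-FRET displacement at room temperature, IC50 fitted from percent of control values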
# Method: as §2
# pERK in PSN1 cells = assay: Inhibition of KRas phosphorylation of ERK (Cisbio HTRF pERK assay); conditions: Homo sapiens, PSN1, 3 h, read-out: Inhibition (HTRF IC50) of KRas-mediated Phosphorylation of ERK, PSN1
# pERK in HCT116 cells = assay: as above; conditions: Homo sapiens, HCT-116, read-out: Inhibition (HTRF IC50) of KRas-mediated Phosphorylation of ERK, HCT116
# pERK in MKN1 cells = assay: as above; conditions: Homo sapiens, MKN-1, 3 h, read-out: Inhibition (HTRF IC50) of KRas-mediated Phosphorylation of ERK, MKN1
# pERK in ASPC1 cells = assay: as above; conditions: Homo sapiens, ASPC1, read-out: Inhibition (HTRF IC50) of KRas-mediated Phosphorylation of ERK, AsPC-1
# pERK in H727 cells = assay: as above; conditions: Homo sapiens, NCI-H727, read-out: Inhibition (HTRF IC50) of KRas-mediated Phosphorylation of ERK, H727
# pERK in H358 cells = assay: as above; conditions: Homo sapiens, NCI-H358, read-out: Inhibition (HTRF IC50) of KRas-mediated Phosphorylation of ERK, H358
# KRas G12D = KRas G12D (Homo sapiens, UniProt P01116, G12D); assay: biochemical;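 further: TR-FRET displacement binding assay on KRas, read after a one-hour incubation at room temperature, IC50 fitted from percent-of-control values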
# Method: as §2
# [1] = system: phospho-ERK in NCI-H460 (Q61H) cells; assay: Inhibition of KRas-mediated phosphorylation of ERK (in-cell western); type: cell-based; conditions: Homo sapiens, NCI-H460, 3 h, 3 hours compound, phospho-ERK normalized to GAPDH
# How it was run: (§1)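 IC50 came from 4-parameter dose-response fits of phospho-ERK (Thr202/Tyr204)/GAPDH signal, expressed as % DMSO control. Compounds were applied for 3 h at 0.5% DMSO before fixation, methanol permeabilization and antibody imaging by in-cell western.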
# [2] = system: phospho-ERK in AsPC-1 (G12D) cells; assay: as above; type: cell-based; conditions: Homo sapiens, ASPC1, 3 h, 3 hours compound, phospho-ERK normalized to GAPDH
# How it was run: as §1
# [3] = system: phospho-ERK in NCI-H727 (G12V) cells; assay: as above; type: cell-based; conditions: Homo sapiens, NCI-H727, 3 h, 3 hours compound, phospho-ERK normalized to GAPDH
# How it was run: as §1
# pERK in H460 cells = assay: Inhibition of KRas phosphorylation of ERK (Cisbio HTRF pERK assay); conditions: Homo sapiens, NCI-H460, read-out: Inhibition (HTRF IC50) of KRas-mediated Phosphorylation of ERK, H460
# KRas G12A = KRas G12A (Homo sapiens, UniProt P01116, G12A); assay: biochemical;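 further: binding to KRas measured by TR-FRET displacement after one hour at room temperature, IC50 from a four-parameter fit of percent-of-control values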
# Method: as §2
# KRas WT = KRas WT (Homo sapiens, UniProt P01116); assay: biochemical;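 further: binding to KRas read as TR-FRET displacement after a one-hour room-temperature incubation, IC50 derived from percent-of-control values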
# Method: as §2
# KRas G12S = KRas G12S (Homo sapiens, UniProt P01116, G12S); assay: biochemical;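 further: TR-FRET displacement binding to KRas, read after one hour incubation at room temperature, IC50 from four-parameter fit of percent of control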
# Method: as §2
# KRas G12C = KRas G12C (Homo sapiens, UniProt P01116, G12C); assay: biochemical;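 further: binding to KRas assessed by TR-FRET displacement after one hour incubation at room temperature, potency fitted from percent-of-control values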
# Sequence of KRas G12C (P01116 1-169 isoform P01116-2 G12C): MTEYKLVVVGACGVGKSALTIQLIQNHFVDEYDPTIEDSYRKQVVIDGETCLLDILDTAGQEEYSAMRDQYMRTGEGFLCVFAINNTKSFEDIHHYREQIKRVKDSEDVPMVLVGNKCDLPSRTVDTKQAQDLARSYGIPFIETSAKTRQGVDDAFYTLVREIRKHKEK
# Method: as §2
# Sequence of KRas G12V (P01116 1-169 isoform P01116-2 G12V): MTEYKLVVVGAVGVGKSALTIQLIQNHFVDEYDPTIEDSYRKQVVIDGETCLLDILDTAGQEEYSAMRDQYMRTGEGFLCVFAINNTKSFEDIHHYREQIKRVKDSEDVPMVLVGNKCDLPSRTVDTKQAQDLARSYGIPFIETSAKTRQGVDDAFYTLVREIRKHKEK
# Sequence of KRas G12D (P01116 1-169 isoform P01116-2 G12D): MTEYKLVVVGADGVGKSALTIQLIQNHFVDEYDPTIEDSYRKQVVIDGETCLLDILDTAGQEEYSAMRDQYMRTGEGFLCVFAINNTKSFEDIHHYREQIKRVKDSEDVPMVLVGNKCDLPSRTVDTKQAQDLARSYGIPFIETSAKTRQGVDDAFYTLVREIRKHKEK
# Sequence of KRas G12R (P01116 1-169 isoform P01116-2 G12R): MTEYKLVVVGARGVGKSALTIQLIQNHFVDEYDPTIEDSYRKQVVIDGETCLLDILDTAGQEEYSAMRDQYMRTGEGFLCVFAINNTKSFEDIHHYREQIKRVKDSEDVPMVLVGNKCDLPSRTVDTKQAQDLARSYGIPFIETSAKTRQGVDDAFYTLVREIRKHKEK
# Sequence of KRas WT (P01116 1-169 isoform P01116-2): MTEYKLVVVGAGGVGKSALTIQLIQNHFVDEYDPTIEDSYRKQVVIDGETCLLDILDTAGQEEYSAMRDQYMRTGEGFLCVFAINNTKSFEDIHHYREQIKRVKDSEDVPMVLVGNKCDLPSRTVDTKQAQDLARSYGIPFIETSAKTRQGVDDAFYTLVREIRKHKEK
# Sequence of KRas G12S (P01116 1-169 isoform P01116-2 G12S): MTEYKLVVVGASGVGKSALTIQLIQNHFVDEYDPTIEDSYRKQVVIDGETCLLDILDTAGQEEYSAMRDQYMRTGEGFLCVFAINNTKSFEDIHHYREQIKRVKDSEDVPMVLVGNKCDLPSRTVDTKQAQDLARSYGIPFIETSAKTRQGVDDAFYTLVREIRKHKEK
# Sequence of KRas G12A (P01116 1-169 isoform P01116-2 G12A): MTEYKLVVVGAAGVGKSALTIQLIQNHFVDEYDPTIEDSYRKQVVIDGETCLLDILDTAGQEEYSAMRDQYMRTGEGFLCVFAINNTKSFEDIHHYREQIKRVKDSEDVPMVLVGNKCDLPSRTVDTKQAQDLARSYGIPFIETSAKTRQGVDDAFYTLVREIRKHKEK
SMILES,IC50 (KRas G12R) [nM],IC50 (KRas G12V) [nM],IC50 (pERK in PSN1 cells) [nM],IC50 (pERK in HCT116 cells) [nM],IC50 (pERK in MKN1 cells) [nM],IC50 (pERK in ASPC1 cells) [nM],IC50 (pERK in H727 cells) [nM],IC50 (pERK in H358 cells) [nM],IC50 (KRas G12D) [nM],IC50 (pERK in H460 cells) [nM],IC50 (KRas G12A) [nM],IC50 (KRas WT) [nM],IC50 (KRas G12S) [nM],IC50 (KRas G12C) [nM],IC50 [1] [nM],IC50 [2] [nM],IC50 [3] [nM]
"CCc1c(F)ccc2cc(O)cc(-c3ncc4c(N5CC(c6ccncc6)C5)nc(OC[C@@]56CCCN5C[C@H](F)C6)nc4c3F)c12 [Example 172, 5-ethyl-6-fluoro-4-(8-fluoro-2-(((2R,7aS)-2-fluorohexahydro-1H-pyrrolizin-7a-yl)methoxy)-4-(3-(pyridin-4-yl)azetidin-1-yl)pyrido[4,3-d]pyrimidin-7-yl)naphthalen-2-ol]",≤ 2,≤ 2,≥ 10000,170,41,96,26,6,9,32,–,–,–,–,79,481,192
CCc1c(F)ccc2cc(O)cc(-c3ncc4c(N5CCCC6(C5)NC(=O)NC6=O)nc(OC[C@@]56CCCN5C[C@H](F)C6)nc4c3F)c12 (stereo partly drawn) [Example 196],≤ 2,≤ 2,314,114,39,97,167,31,≤ 2,33,–,–,–,–,48,361,452
"CCc1c(F)ccc2cc(O)cc(-c3ncc4c(N5C[C@@H]6C[C@H](C5)[C@H](O)C6)nc(OCC5(CN(C)C)CC5)nc4c3F)c12 [Example 360, (1R,5R,6R)-3-(2-((1-((dimethylamino)methyl)cyclopropyl)methoxy)-7-(8-ethyl-7-fluoro-3-hydroxynaphthalen-1-yl)-8-fluoropyrido[4,3-d]pyrimidin-4-yl)-3-azabicyclo[3,2,1]octan-6-ol]",≤ 2,≤ 2,9190,140,2,49,62,19,5,54,–,–,–,–,–,–,–

# Further lines, with some results ahead:
IC50 (KRas G12R) [nM],IC50 (KRas G12V) [nM],IC50 (pERK in PSN1 cells) [nM],IC50 (pERK in HCT116 cells) [nM],IC50 (pERK in MKN1 cells) [nM],IC50 (pERK in ASPC1 cells) [nM],IC50 (pERK in H727 cells) [nM],IC50 (pERK in H358 cells) [nM],IC50 (KRas G12D) [nM],IC50 (pERK in H460 cells) [nM],IC50 (KRas G12A) [nM],IC50 (KRas WT) [nM],IC50 (KRas G12S) [nM],IC50 (KRas G12C) [nM],SMILES,IC50 [1] [nM],IC50 [2] [nM],IC50 [3] [nM]
6,4,5540,454,42,56,263,95,6,176,–,–,–,–,CCc1c(F)ccc2cc(O)cc(-c3ncc4c(N5CCCC(C#N)CC5)nc(OC[C@@]56CCCN5C[C@H](F)C6)nc4c3F)c12 (stereo partly drawn) [Example 173],145,180,304
≤ 2,≤ 2,5150,56,17,49,45,164,≤ 2,61,≤ 2,≤ 2,≤ 2,≤ 2,"CCc1c(F)ccc2cc(O)cc(-c3ncc4c(N5CCCCCCC5)nc(OC[C@@]56CCCN5C[C@H](F)C6)nc4c3F)c12 [Example 325, 4-(4-(azocan-1-yl)-8-fluoro-2-(((2R,7aS)-2-fluorohexahydro-1H-pyrrolizin-7a-yl)methoxy)pyrido[4,3-d]pyrimidin-7-yl)-5-ethyl-6-fluoronaphthalen-2-ol]",–,–,–
